According to patent publication EP0315434A2, “Pyridoxal hydrazone derivatives their production and use and pharmaceutical compositions containing the same” (YISSUM RESEARCH DEVELOPMENT COMPANY OF THE HEBREW …, priority 1987, dated 1989):

Experiments:
[1] = Mobilization of iron from hepatic parenchymal stores in hypertransfused rats labelled with ⁵⁹Fe-ferritin; assay type: in vivo
Method: In each case, 40 mg of each compound was administered per animal in a single subcutaneous injection.
In vivo studies of chelating efficiency were performed in two models: (a) normal rats injected i.p. with 10 mg of either desferrioxamine B (DF), PIH of the prior art, PPH of Example 4 or PPHE from Example 5 labelled in vitro with ⁵⁹Fe; and (b) hypertransfused rats receiving twice 4 ml/100gm packed RBC intravenously 5 and 3 days prior to study (hematocrit 68%) and labelled with ⁵⁹Fe-ferritin injected i.v. 24h prior to iron chelating therapy as described previously. Drugs to be tested in the ⁵⁹Fe-ferritin model were given either by i.p. injection or by gastric tube at a dose of 40 mg per animal. Radioiron excretion and organ distribution were determined after 4 days
The radioactivity of spleen, weighed portions of the liver, and 1 ml samples of blood were determined in an automatic well type scintillation counter (Packard Autogamma Model 5360 Scintillation spectrometer). Spleen and kidney were counted as whole organs.
Whole body counts were performed in a small animal counter (Packard Model 446 Armac) scintillation detector. The excretion of radioiron following ⁵⁹Fe labelling was measured in animals confined to solitary metabolic cages with stainless steel grid bottoms, and stool and urine were collected separately.

[2] = Fate of ⁵⁹Fe tracer incubated with chelator and injected into normal rats (radioiron distribution and excretion); assay type: in vivo
Method: Table 1 describes the fate of ⁵⁹Fe tracer reincubated […] with 10 mg of some of the above iron chelators and then injected subcutaneously to groups of 4 normal rats. Numbers represent mean cumulative radioiron excretion within 4 days of injection. For comparison, spontaneous excretion of radioiron and the excretion of desferrioxamine (DF) bound radioiron are also given. […]
Spleen and kidney were counted as whole organs.
The excretion of radioiron following ⁵⁹Fe labelling was measured in animals confined to solitary metabolic cages with stainless steel grid bottoms, and stool and urine were collected separately.

[3] = stated as known; cited from earlier work
[4] = background statement, "probably"; cited from earlier work
[5] = system: non-resistant strain of P. falciparum; settings: molar concentration 1.5 x 10⁻⁵, according to Raventos-Suarez; cited from earlier work
[6] = hypertransfused rats, 40 mg per animal, after 4 days, Desferral i.p., route not printed for Ex. 4 and Ex. 5, mean ± SD
[7] = hypertransfused rats, 40 mg per animal, after 4 days, Desferral i.p., route not printed for Ex. 4 and Ex. 5, mean ± SD, listed as desferral
[8] = hypertransfused rats, 40 mg per animal, single subcutaneous injection
[9] = 10 mg chelator with ⁵⁹Fe, subcutaneous, normal rats, cumulative within 4 days
[10] = 10 mg chelator with ⁵⁹Fe, subcutaneous, normal rats, within 4 days

Q: Which results are given for CC(=O)N(O)CCCCCNC(=O)CCC(=O)N(O)CCCCCNC(=O)CCC(=O)N(O)CCCCCN [Desferral, desferrioxamine, reference compound]?
A: reduction in hepatocellular (hepatic) radioactivity ([1]; 40 mg i.p., hypertransfused rats, 4 days): 20%; ORGAN DISTRIBUTION AND EXCRETION OF ⁵⁹Fe-FERRITIN (%) BLOOD [1, 6]: 4.5±0.4%; ORGAN DISTRIBUTION AND EXCRETION OF ⁵⁹Fe-FERRITIN (%) LIVER [1, 6]: 70.4± 6.0%; ORGAN DISTRIBUTION AND EXCRETION OF ⁵⁹Fe-FERRITIN (%) STOOL [1, 6]: 23.3±0.1%; ORGAN DISTRIBUTION AND EXCRETION OF ⁵⁹Fe-FERRITIN (%) TOTAL EXCRETION [1, 6]: 24.5±0.1%; ORGAN DISTRIBUTION AND EXCRETION OF ⁵⁹Fe-FERRITIN (%) URINE ([1]; hypertransfused rats, 40 mg per animal, after 4 days, Desferral i.p., route not printed for Ex. 4 and Ex. 5, mean ± SD, listed as DESFERRAL): 1.2±0%; ORGAN DISTRIBUTION AND EXCRETION OF ⁵⁹Fe-FERRITIN (%) STOOL [1, 7]: 23%; ORGAN DISTRIBUTION AND EXCRETION OF ⁵⁹Fe-FERRITIN (%) URINE [1, 7]: negligible; Ferritin-⁵⁹Fe distribution in % Blood [1, 8]: 4.5±0.4%; Ferritin-⁵⁹Fe distribution in % Feces [1, 8]: 23.3±0.1%; Ferritin-⁵⁹Fe distribution in % Liver [1, 8]: 70.4±6.0%; Ferritin-⁵⁹Fe distribution in % Residual [1, 8]: 0%; Ferritin-⁵⁹Fe distribution in % Spleen [1, 8]: 0.6±0.1%; Ferritin-⁵⁹Fe distribution in % Urine [1, 8]: 1.2±0%; total radioiron excretion ([1]; oral, 40 mg drug/animal by gastric tube, hypertransfused ⁵⁹Fe-ferritin labelled rats): 6.0%; Radioiron Distribution in % Feces [2, 9]: 13.5±0.7%; Radioiron Distribution in % Total excretion [2, 9]: 85.4±4.3%; Radioiron Distribution in % Urine [2, 9]: 71.9±3.6%; Radioiron Distribution in % Blood [2, 10]: 8.7±1.6%; Radioiron Distribution in % Liver [2, 10]: 2.7±0.3%; Radioiron Distribution in % Spleen [2, 10]: 0.14±0.03%; TOTAL EXCRETION OF RADIO-IRON IN RATS % ([2]; as in Table 1): 85.4± 4.3%; oral efficiency [3]: no oral efficiency; half life in vivo [4]: less than 1 hr; INHIBITION OF GROWTH OF P. falciparum % INHIBITION [5]: complete after 96 Hrs. ^(*)
